Measured values taken from publication PMC4807435 (CPT: Pharmacometrics & Systems Pharmacology, 2016).

Columns and labels:
[1] = Population PK model of unbound and total LPV/RTV in HIV-infected pregnant women; format: in vivo, human; conditions: for Total body clearance CL/F, back-calculated, median (range): intrinsic clearance × unbound fraction
[2] = tested on: LPV intrinsic clearance; assay: LPV-RTV interaction modeling; format: in vivo, human
[3] = 2nd trimester vs. pp; capsules; ref Mirochnick et al., JAIDS, 2008 (9); cited from earlier work
[4] = tested on: LPV intrinsic clearance; conditions: same interaction function form; ref Wang et al., 32; cited from earlier work
[5] = final model, 500 bootstrap replicates
[6] = final model, 500 bootstrap replicates, weight-scaled model (per 70kg)

Row | Apparent intrinsic clearance CLu/F, post hoc estimate, median (range) ([1]; Visit 1 (20–24 weeks)) | Total body clearance CL/F, back-calculated, median (range) ([1]; Visit 1 (20–24 weeks)) | Total body clearance CL/F, back-calculated, median (range) ([1]; Visit 2 (30 weeks)) | Apparent intrinsic clearance CLu/F, post hoc estimate, median (range) ([1]; Visit 3 (32 weeks)) | Total body clearance CL/F, back-calculated, median (range) ([1]; Visit 3 (32 weeks)) | Apparent intrinsic clearance CLu/F, post hoc estimate, median (range) ([1]; Visit 4 (8 weeks postpartum)) | Total body clearance CL/F, back-calculated, median (range) ([1]; Visit 4 (8 weeks postpartum)) | Interindividual variability of CLu/F, bootstrap estimates (95% CI) ([1]; final model) | Interindividual variability of CLu/F, estimate ([1]; final model) [%CV] | Interindividual variability of fu, bootstrap estimates (95% CI) ([1]; final model) | Interindividual variability of fu, estimate ([1]; final model) [%CV] | Interoccasion variability of fu, bootstrap estimates (95% CI) ([1]; final model) | Interoccasion variability of fu, estimate ([1]; final model) [%CV] | Interoccasion variability of ka, estimate ([1]; final model) [%CV] | Lag time, estimate ([1]; final model) [h] | ka, estimate ([1]; final model) [h⁻¹] | Lag time, bootstrap estimates (95% CI) [1, 5] | ka, bootstrap estimates (95% CI) [1, 5] | SMILES | other results
1 | 232 (226, 237) L/hr | 5.92 (5.22, 7.22) L/hr | 6.69 (5.73, 8.21) L/hr | 269 (263, 276) L/hr | 6.94 (5.90, 8.46) L/hr | 167 (165, 168) L/hr | 4.28 (3.65, 5.25) L/hr | 2.10 (0.32, 11.4) %CV | 2.70 | 3.81 (0.32, 10.3) %CV | 4.60 | 9.98 (4.68, 13.3) %CV | 10.0 | 138 | 1.77 | 1.07 | 1.75 (1.25, 1.93) h | 0.906 (0.582, 1.78) h^−1 | Cc1cccc(C)c1OCC(=O)N[C@@H](Cc1ccccc1)[C@@H](O)C[C@H](Cc1ccccc1)NC(=O)[C@H](C(C)C)N1CCCNC1=O [LPV, lopinavir] | Increase of median post hoc CLu/F compared to 8 weeks postpartum ([1]; 20–24 weeks of gestation (22 weeks elsewhere in the source)): 38%; Increase of median post hoc CLu/F compared to 8 weeks postpartum ([1]; 30 weeks of gestation): 56%; Increase of median post hoc CLu/F compared to 8 weeks postpartum ([1]; 32 weeks of gestation): 61%; CL/F, estimate ([1]; CL/F = fu × CLu/F): 4.31 L/h; V/F, estimate ([1]; V/F = fu × Vu/F): 88.5 L; Apparent intrinsic clearance CLu/F, post hoc estimate, median (range) ([1]; Visit 2 (30 weeks)): 261 (255, 264) L/hr; fraction unbound ([1]; female, human, plasma, oral, fu, estimate, final model, unbound fraction): 0.0258; Interoccasion variability of CLu/F, bootstrap estimates (95% CI) ([1]; final model): 23.4 (16.1, 29.7) %CV; Interoccasion variability of CLu/F, estimate ([1]; final model): 24.7 %CV; Vu/F, estimate ([1]; final model): 3430 L; CLu/F, bootstrap estimates (95% CI) [1, 5]: 167 (136, 202) L/h; Coefficient of gestational week impact on CLu/F, bootstrap estimates (95% CI) [1, 5]: 0.0148 (0.00835, 0.0223); Vu/F, bootstrap estimates (95% CI) [1, 5]: 3325 (2655, 4256) L; CLu/F, estimate ([1]; final model, population value at gestational week zero (postpartum reference)): 167 L/h; Coefficient of gestational week impact on CLu/F, estimate ([1]; individual final model, CLu/F = θ × e^(coef×WEEK)): 0.0148; Unbound fraction, pregnancy vs postpartum ([1]; population PK covariate analysis): not significantly different; Difference among unbound AUC fractions across the four study visits ([1]; post hoc repeated-measures ANOVA, P > 0.05): no significant findings; LPV clearance estimate (CLu/F) ([2]; Basic joint model: LPV and RTV individual final models without interactions): 167 L/h; Decrease in AUC [3]: 52%
2 | 273 (161, 421) L/hr | 38.2 (26.0, 42.1) L/hr | 52.3 (33.6, 74.1) L/hr | 357 (191, 508) L/hr | 58.5 (32.6, 93.6) L/hr | 178 (101, 257) L/hr | 26.9 (16.6, 37.5) L/hr | 10.6 (1.92, 19.0) %CV | 8.5 | 23.3 (12.2, 34.4) %CV | 24.4 | 20.8 (12.6, 28.6) %CV | 23.5 | 141.8 | 1.86 | 1.01 | 1.86 (1.67, 1.94) h | 1.01 (0.340, 2.00) h^−1 | CC(C)c1nc(CN(C)C(=O)N[C@H](C(=O)N[C@@H](Cc2ccccc2)C[C@H](O)[C@H](Cc2ccccc2)NC(=O)OCc2cncs2)C(C)C)cs1 [RTV, ritonavir] | Interoccasion variability of F, bootstrap estimates (95% CI) ([1]; final model): 30.9 (17.1, 46.1) %CV; Interoccasion variability of F, estimate ([1]; final model): 36.2 %CV; Interoccasion variability of ka, bootstrap estimates (95% CI) ([1]; final model): 142 (81.5, 201) %CV; CLu/F, bootstrap estimates (95% CI) [1, 6]: 157 (120, 202) L/h; Vu/F, bootstrap estimates (95% CI) [1, 6]: 1630 (1040, 2100) L; Interaction parameter (coef) ([2]; Model 6, CRTV exponential model, unbound RTV concentration): 0.0028; Interaction coefficient in terms of total RTV concentration ([2]; exponential interaction function): 0.00041; Interaction value (LPV-RTV interaction coefficient) [4]: 0.00064
